Laboratory results: ChEMBL document CHEMBL1158295, “Five new monotetrahydrofuran ring acetogenins from the leaves of Annona muricata” (J Nat Prod, 1996)
In brackets after ≈: the same amount, converted by molar mass.

Assays:
[1] = tested on: A549; experiment: Cytotoxicity against human A549 cells; type: functional; settings: read-out: ED50 (the source's name)
[2] = tested on: MIA PaCa-2; experiment: Cytotoxicity against human MIAPaCa2 cells; type: functional; settings: read-out: ED50 (the source's name)
[3] = tested on: HT-29; experiment: Cytotoxicity against human HT29 cells; type: functional; settings: read-out: ED50 (the source's name)
[4] = tested on: Artemia; experiment: Toxicity to brine shrimp; type: organism-based; settings: in vivo
[5] = tested on: A498; experiment: Cytotoxicity against human A498 cells; type: functional; settings: read-out: ED50 (the source's name)
[6] = tested on: PC-3; experiment: Cytotoxicity against human PC3 cells; type: functional; settings: read-out: ED50 (the source's name)
[7] = tested on: MCF7; experiment: Cytotoxicity against human MCF7 cells; type: functional; settings: read-out: ED50 (the source's name)

SMILES	EC50 [1]	EC50 [2]	EC50 [3]	LC50 [4]	EC50 [5]	EC50 [6]	EC50 [7]
COc1cccc2c1C(=O)c1c(O)c3c(c(O)c1C2=O)C[C@@](O)(C(=O)CO)C[C@@H]3O[C@H]1C[C@H](N)[C@H](O)[C@H](C)O1 [DOXORUBICIN]	0.00428 µg/mL (≈ 0.00787 µM)	0.00423 µg/mL (≈ 0.00778 µM)	0.0498 µg/mL (≈ 0.0916 µM)	2.57 ×10⁻¹ ppm	0.0462 µg/mL (≈ 0.085 µM)	0.0583 µg/mL (≈ 0.107 µM)	0.495 µg/mL (≈ 0.911 µM)
CCCCCCCCCCCC[C@@H](O)[C@H](O)CC[C@H](O)[C@@H]1CC[C@@H](C[C@H](O)CCCCC[C@@H](O)CC2=C[C@H](C)OC2=O)O1 [ANNOPENTOCIN A]	0.171 µg/mL (≈ 0.279 µM)	0.0358 µg/mL (≈ 0.0584 µM)	1.63 µg/mL (≈ 2.66 µM)	8.9 ppm	0.607 µg/mL (≈ 0.99 µM)	1.14 µg/mL (≈ 1.86 µM)	17.9 µg/mL (≈ 29.3 µM)
CCCCCCCCCCCC[C@H](O)[C@H](O)CC[C@H](O)[C@@H]1CC[C@@H](C[C@H](O)CCCCC[C@@H](O)CC2=C[C@H](C)OC2=O)O1 [ANNOPENTOCIN C]	0.0206 µg/mL (≈ 0.0336 µM)	0.428 µg/mL (≈ 0.698 µM)	1.24 µg/mL (≈ 2.02 µM)	13.8 ppm	0.258 µg/mL (≈ 0.421 µM)	0.228 µg/mL (≈ 0.372 µM)	2.97 µg/mL (≈ 4.85 µM)
CCCCCCCCCCCC[C@H](O)[C@@H](O)CC[C@H](O)[C@@H]1CC[C@@H](C[C@H](O)CCCCC[C@@H](O)CC2=C[C@H](C)OC2=O)O1 [ANNOPENTOCIN B]	0.0274 µg/mL (≈ 0.0447 µM)	0.162 µg/mL (≈ 0.264 µM)	1.64 µg/mL (≈ 2.68 µM)	11.2 ppm	0.379 µg/mL (≈ 0.618 µM)	0.212 µg/mL (≈ 0.346 µM)	3.56 µg/mL (≈ 5.81 µM)
